Assay results taken from patent US20090270435A1 (priority 2006, published 2009).
Where a name gives a salt, the structure may show the parent alone.

The compounds below were run against T1, ACC1 from rat liver (Rattus norvegicus, UniProt P11497) (assay: Direct inhibition of ACC1 activity (14C-bicarbonate incorporation)). Details: ACC1 from rat liver.
T1 construct: The livers (for ACC1 preparation) or skeletal muscle tissue (for ACC2 preparation) are removed; from tissue; host or cells: liver of male CD rats (fasted, then fed a high sucrose diet)
Format: biochemical
Method: [1] Preparation of ACC1 and ACC2.
Male CD rats weighing 150-200 g are fasted for 2 days and then fed a high sucrose diet (AIN-76A rodent diet; Cat # D10001, Research Diets Inc., New Brunswick, N.J.), for 3 days at which time they are sacrificed by CO2 asphyxiation. The livers (for ACC1 preparation) or skeletal muscle tissue (for ACC2 preparation) are removed, rinsed in ice-cold phosphate-buffered saline (PBS), and homogenized in 5 volumes of homogenization buffer (50 mM potassium phosphate, pH 7.5, 10 mM EDTA, 10 mM 2-mercaptoethanol, 2 mM benzamidine, 0.2 mM phenylmethylsulfonylfluoride (PMSF), 5 mg/L each leupeptin, aprotinin, and antitrypsin) in a Waring® blender for 1 minute at 4° C. All subsequent operations are carried out at 4° C. The homogenate is made 3% with respect to polyethylene glycol (PEG) by the addition of 50% PEG solution and centrifuged at 20,000×g for 15 minutes. The resulting supernatant is adjusted to 5% PEG with the addition of 50% PEG solution and stirred for 5 minutes. The pellet (contains ACC activity) is collected by centrifugation at 20,000×g for 20 minutes, rinsed with Ice-cold doubly distilled water to remove excess PEG and re-suspended in one-fourth the original homogenate volume with homogenization buffer. Ammonium sulfate (200 g/liter) is slowly added with stirring. After 45 minutes the enzyme is collected by centrifugation for 30 minutes at 20,000×g, re-suspended in 10 ml of 50 mM HEPES, pH7.5, 0.1 mM DTT, 1.0 mM EDTA, and 10% glycerol and desalted on a Sephadex™ G-25 column (2.5 cm-x 50 cm) (Pharmacia, Piscataway N.J. now GE Healthcare) […] equilibrated with the same buffer. The desalted enzyme preparation is stored in aliquots at −70° C. Immediately prior to use, frozen ACC1 or ACC2 aliquots are thawed, diluted to 500 μg/ml in buffer containing 50 mM HEPES, pH7.5, 1.0 mM MgCl2, 10 mM tripotassium citrate, 2.0 mM dithiothreitol (DTT), and 0.75 mg/ml fatty acid-free bovine serum albumin (BSA) and pre-incubated at 37° C. for 30 minutes.
[2] Measurement of ACC inhibition. The procedures for measuring ACC1 inhibition and ACC2 inhibition are identical except for the source of the isozyme. For measurement of ACC activity and assessment of ACC inhibition, test compounds are dissolved in dimethylsulfoxide (DMSO) and 1 μL aliquots are placed in 0.5 ml polypropylene tubes. Control tubes contain 1 μL of DMSO alone. Tubes are incubated at 37° C. in a constant temperature water bath. […] The reaction is then initiated by the addition of 10 μL of preincubated ACC fraction prepared as described above. After 7 minutes the reaction is terminated by the addition of 50 μL of 6N HCl and a 150 μL aliquot of the reaction mixture is transferred to glass scintillation vials and evaporated to dryness at 90° C. for at least 1 hour. The dried vials are then cooled, 0.5 ml of water and 5.5 ml of Ready Safe liquid scintillation fluid (Beckman Coulter Inc., Fullerton, Calif.) are added, and the radioactivity is determined using a liquid scintillation counter. Tubes that received HCl before ACC served as blanks.

Row | Compound | IC50 [nM]
1 | O=C1CC2(CCN(C(=O)c3cccc4cn[nH]c34)CC2)Oc2ccccc21 [listing 1 of 2 here] | > 3000
2 | O=C1CC2(CCN(C(=O)c3cccc4cn[nH]c34)CC2)Oc2ccccc21 [listing 2 of 2 here] | 3540
3 | 1′-1H-indol ylcarbonyl)-6,7-dimethylspiro[chromene-2,4′-piperidin]-4(3H)-one trifluoroacetic acid salt [Ex. L14] | 479
4 | 1′-[(7-bromo-1H-indazol-6-yl)carbonyl]-6-chlorospiro[chromene-2,4′-piperidin]-4(3H)-one [Ex. G5] | > 1000
5 | 5,7-dichloro-1′-(1H-indazol-7-ylcarbonyl)spiro[chromene-2,4′-piperidin]-4(3H)-one [Ex. H15] | 1480
6 | 5,7-dichloro-1′-[(7-chloro-1H-indazol-5-yl)carbonyl]spiro[chromene-2,4′-piperidin]-4(3H)-one [Ex. B9] | 180
7 | 6-chloro-1′-[(7-chloro-1H-indazol-5-yl)carbonyl]-7-fluorospiro[chromene-2,4′-piperidin]-4(3H)-one [Ex. B13] | 287
8 | 6-chloro-1′-[(7-chloro-1H-indazol-5-yl)carbonyl]spiro[chromene-2,4′-piperidin]-4(3H)-one [Ex. B8] | 166
9 | COc1cccc2c1C(=O)CC1(CCN(C(=O)c3cc(Cl)c4[nH]ncc4c3)CC1)O2 [B6, 1′-[(7-chloro-1H-indazol-5-yl)carbonyl]-5-methoxyspiro[chromene-2,4′-piperidin]-4(3H)-one] | 109
10 | Cc1cc2c(cc1C)C(=O)CC1(CCN(C(=O)c3cc(C)c4[nH]ncc4c3)CC1)O2 [Ex. A2, 6,7-dimethyl-1′-[(7-methyl-1H-indazol-5-yl)carbonyl]spiro-[chromene-2,4′-piperidin]-4(3H)-one trifluoroacetic acid salt] | 30.1
11 | CNC(=O)c1ccc2c(c1)C(=O)CC1(CCN(C(=O)c3cc(C)c4[nH]ncc4c3)CC1)O2 [Ex. A5, N-methyl-1′-[(7-methyl-1H-indazol-5-yl)carbonyl]-4-oxo-3,4-dihydrospiro[chromene-2,4′-piperidine]-6-carboxamide] | 29.5
12 | COc1cc(Cl)c2c(c1)OC1(CCN(C(=O)c3cc(C)c4[nH]ncc4c3)CC1)CC2=O [Ex. A6, 5-chloro-7-methoxy-1′-[(7-methyl-1H-indazol-5-yl)carbonyl]spiro[chromene-2,4′-piperidin]-4(3H)-one] | 31.9
13 | Cc1cc2c(cc1Br)C(=O)CC1(CCN(C(=O)c3cc(C)c4[nH]ncc4c3)CC1)O2 [Ex. A8, 6-bromo-7-methyl-1′-[(7-methyl-1H-indazol-5-yl)carbonyl]spiro[chromene-2,4′-piperidin]-4(3H)-one] | 32.6
14 | Cc1cc(C(=O)N2CCC3(CC2)CC(=O)c2cc(C(N)=O)ccc2O3)cc2cn[nH]c12 [Ex. A10, 1′-[(7-methyl-1H-indazol-5-yl)carbonyl]-4-oxo-3,4-dihydrospiro[chromene-2,4′-piperidine]-6-carboxamide] | 38.2
15 | COC(=O)c1ccc2c(c1)C(=O)CC1(CCN(C(=O)c3cc(C)c4[nH]ncc4c3)CC1)O2 [Ex. A11, methyl 1-[(7-methyl-1H-indazol-5-yl)carbonyl]-4-oxo-3,4-dihydrospiro[chromene-2,4-piperidine]-6-carboxylate] | 40
16 | Cc1cc(C(=O)N2CCC3(CC2)CC(=O)c2cc(Cl)c(Cl)cc2O3)cc2cn[nH]c12 [Ex. A14, 6,7-dichloro-1′-[(7-methyl-1H-indazol-5-yl)carbonyl]spiro[chromene-2,4′-piperidin]-4(3H)-one] | 52
17 | Cc1ccc2c(c1)C(=O)CC1(CCN(C(=O)c3cc(C)c4[nH]ncc4c3)CC1)O2 [Ex. A15, 6-methyl-1′-[(7-methyl-1H-indazol-5-yl)carbonyl]spiro[chromene-2,4′-piperidin]-4(3H)-one] | 53.6
18 | Cc1cc(C(=O)N2CCC3(CC2)CC(=O)c2ccc(Cl)cc2O3)cc2cn[nH]c12 [Ex. A17, 7-chloro-1′-[(7-methyl-1H-indazol-5-yl)carbonyl]spiro[chromene-2,4′-piperidin]-4(3H)-one] | 70.5
19 | Cc1cc2c(c(C)c1Cl)C(=O)CC1(CCN(C(=O)c3cc(C)c4[nH]ncc4c3)CC1)O2 [Ex. A18, 6-chloro-5,7-dimethyl-1′-[(7-methyl-1H-indazol-5-yl)carbonyl]spiro[chromene-2,4′-piperidin]-4(3H)-one] | 72
20 | COc1cc(Cl)cc2c1C(=O)CC1(CCN(C(=O)c3cc(C)c4[nH]ncc4c3)CC1)O2 [Ex. A19, 7-chloro-5-methoxy-1′-[(7-methyl-1H-indazol-5-yl)carbonyl]spiro[chromene-2,4′-piperidin]-4(3H)-one] | 81.5
21 | Cc1cc(C(=O)N2CCC3(CC2)CC(=O)c2cc(C(F)(F)F)ccc2O3)cc2cn[nH]c12 [Ex. A20, 1′-[(7-methyl-1H-indazol-5-yl)carbonyl]-6-(trifluoromethyl)spiro[chromene-2,4′-piperidin]-4(3H)-one] | 96.6
22 | Cc1cc(C(=O)N2CCC3(CC2)CC(=O)c2cc(F)c(Cl)cc2O3)cc2cn[nH]c12 [Ex. A22, 7-chloro-6-fluoro-1′-[(7-methyl-1H-indazol-5-yl)carbonyl]spiro[chromene-2,4′-piperidin]-4(3H)-one] | 104
23 | Cc1cc(C(=O)N2CCC3(CC2)CC(=O)c2cc(C(C)C)ccc2O3)cc2cn[nH]c12 [Ex. A23, 6-isopropyl-1′-[(7-methyl-1H-indazol-5-yl)carbonyl]spiro[chromene-2,4′-piperidin]-4(3H)-one] | 109
24 | COc1ccc2c(c1)OC1(CCN(C(=O)c3cc(C)c4[nH]ncc4c3)CC1)CC2=O [Ex. A24, 7-methoxy-1′-[(7-methyl-1H-indazol-5-yl)carbonyl]spiro[chromene-2,4′-piperidin]-4(3H)-one] | 122
25 | COc1cccc2c1C(=O)CC1(CCN(C(=O)c3cc(C)c4[nH]ncc4c3)CC1)O2 [Ex. A25, 5-methoxy-1′-[(7-methyl-1H-indazol-5-yl)carbonyl]spiro[chromene-2,4′-piperidin]-4(3H)-one] | 112
26 | Cc1cc(C(=O)N2CCC3(CC2)CC(=O)c2cc(Cl)ccc2O3)cc2cn[nH]c12 [Ex. A26, 6-chloro-1′-[(7-methyl-1H-indazol-5-yl)carbonyl]spiro[chromene-2,4′-piperidin]-4(3H)-one] | 113
27 | Cc1cc(C(=O)N2CCC3(CC2)CC(=O)c2cc(C(=O)N(C)C)ccc2O3)cc2cn[nH]c12 [Ex. A27, N,N-dimethyl-1′-[(7-methyl-1H-indazol-5-yl)carbonyl]-4-oxo-3,4-dihydrospiro[chromene-2,4′-piperidine]-6-carboxamide] | 125
28 | COc1cc(C)c2c(c1)OC1(CCN(C(=O)c3cc(C)c4[nH]ncc4c3)CC1)CC2=O [Ex. A28, 7-methoxy-5-methyl-1′-[(7-methyl-1H-indazol-5-yl)carbonyl]spiro[chromene-2,4′-piperidin]-4(3H)-one] | 138
29 | Cc1cc(C)c2c(c1)OC1(CCN(C(=O)c3cc(C)c4[nH]ncc4c3)CC1)CC2=O [Ex. A29, 5,7-dimethyl-1′-[(7-methyl-1H-indazol-5-yl)carbonyl]spiro[chromene-2,4′-piperidin]-4(3H)-one] | 146
30 | Cc1cc(C(=O)N2CCC3(CC2)CC(=O)c2c(Cl)cc(Cl)cc2O3)cc2cn[nH]c12 [Ex. A30, 5,7-dichloro-1′-[(7-methyl-1H-indazol-5-yl)carbonyl]spiro[chromene-2,4′-piperidin]-4(3H)-one] | 209
